Key:
[1] = Compound was evaluated for its stability and enzymatic cleavage of dipeptide linker at pH5, 37 degree C.; type: ADME; settings: pH 5
[2] = Compound was evaluated for its stability and enzymatic cleavage of dipeptide linker at pH5, 37 degree C.; 5-6 h; type: ADME; settings: pH 5
[3] = Compound was evaluated for its stability and enzymatic cleavage of dipeptide linker at pH 7, 37 degree C.; 5-6 h; type: ADME
[4] = system: L2987; assay: Compound was evaluated for antigen specific activity in vitro L2987 cell line; type: functional, cell-based; settings: Homo sapiens

## CC[C@]1(OC(=O)OCc2ccc(NC(=O)[C@H](CCCCN)NC(=O)[C@H](Cc3ccccc3)NC(=O)CCCCCN3C(=O)CC(SCCO)C3=O)cc2)C(=O)OCc2c1cc1n(c2=O)Cc2cc3ccccc3nc2-1 (some centres undefined)
[1]
  half-life: < 2 min
[2]
  half-life: 360 min
[3]
  half-life: 360 min

## CC[C@@]1(O)C(=O)OCc2c1cc1n(c2=O)Cc2cc3ccccc3nc2-1 [CAMPTOTHECIN]
[4]
  IC50: 400 nM

Reference: ChEMBL document CHEMBL1135376, “Synthesis of an immunoconjugate of camptothecin” (Bioorg Med Chem Lett, 2002)
